How the values were obtained:
JAK1 = JAK1 (Homo sapiens (Human), UniProt P23458); assay: Jak biochemical HTRF assay, JAK1; conditions: HTRF biochemical assay, recombinant GST-tagged catalytic domain; read-out: JAK1 IC50
JAK2 = JAK2 (Homo sapiens (Human), UniProt O60674); assay: Jak biochemical HTRF assay, JAK2; conditions: HTRF biochemical assay, recombinant GST-tagged catalytic domain; read-out: JAK2 IC50
JAK2, sequence (O60674 849-1124): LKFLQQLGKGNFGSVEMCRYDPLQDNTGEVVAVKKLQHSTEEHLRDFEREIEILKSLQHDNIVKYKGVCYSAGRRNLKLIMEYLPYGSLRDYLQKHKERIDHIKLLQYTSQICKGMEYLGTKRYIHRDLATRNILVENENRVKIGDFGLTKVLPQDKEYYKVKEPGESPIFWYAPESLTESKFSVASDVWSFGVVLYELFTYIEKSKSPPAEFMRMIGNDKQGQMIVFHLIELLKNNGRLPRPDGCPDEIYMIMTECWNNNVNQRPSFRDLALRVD

JAK1, sequence (P23458 875-1153): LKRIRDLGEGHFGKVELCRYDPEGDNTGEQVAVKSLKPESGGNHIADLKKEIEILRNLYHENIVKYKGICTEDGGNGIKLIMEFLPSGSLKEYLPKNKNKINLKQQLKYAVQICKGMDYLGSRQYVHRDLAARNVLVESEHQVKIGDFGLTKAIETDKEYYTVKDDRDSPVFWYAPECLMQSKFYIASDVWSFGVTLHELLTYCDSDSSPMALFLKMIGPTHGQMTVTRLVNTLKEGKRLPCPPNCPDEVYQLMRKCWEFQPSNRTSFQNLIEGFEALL

| SMILES | IC50 (JAK1) [nM] | IC50 (JAK2) [nM] |
| --- | --- | --- |
| N#C[C@H]1CCCC[C@@H]1n1nc(Nc2ccc(-c3nccs3)cc2)c2c(=O)[nH]ccc21 [Example 15-2, (1S,2S)-2-(4-oxo-3-{[4-(1,3-thiazol-2-yl)phenyl]amino}-4,5-dihydro-1H-pyrazolo[4,3-c]pyridin-1-yl)cyclohexanecarbonitrile] | 0.26 | 3.6 |
| N#C[C@H]1C[C@@H](N2CCC2)CC[C@@H]1n1nc(Nc2ccc(C(F)(F)F)cc2)c2c(=O)[nH]ccc21 [Example 5-8, (1S,2S,5S)-5-(azetidin-1-yl)-2-(4-oxo-3-((4-(trifluoromethyl)phenyl)amino)-4,5-dihydro-1H-pyrazolo[4,3-c]pyridin-1-yl)cyclohexanecarbonitrile] | 0.88 | 22 |
| CC(O)c1cccc(Nc2nn([C@H]3CCCC[C@@H]3C#N)c3cc[nH]c(=O)c23)c1 (stereo partly drawn) [Example 3-31, (1S,2S)-2-(3-{[3-(1-hydroxyethyl)phenyl]amino}-4-oxo-4,5-dihydro-1H-pyrazolo[4,3-c]pyridin-1-yl)cyclohexanecarbonitrile] | 0.46 | 1.7 |
| CN(C)[C@H]1CC[C@H](n2nc(Nc3ccc(Cl)c(F)c3)c3c(=O)[nH]ccc32)[C@@H](C#N)C1 [Example 5-2, (1S,2S,5S)-2-(3-((4-Chloro-3-fluorophenyl)amino)-4-oxo-4,5-dihydro-1H-pyrazolo[4,3-c]pyridin-1-yl)-5-(dimethylamino)cyclohexanecarbonitrile] | 0.6 | 14 |
| N#C[C@H]1CCCC[C@@H]1n1nc(Nc2ccc(S(=O)(=O)N3CCCCC3)cc2)c2c(=O)[nH]ccc21 [Example 3-23, (1S,2S)-2-(4-oxo-3-{[4-(piperidin-1-ylsulfonyl)phenyl]amino}-4,5-dihydro-1H-pyrazolo[4,3-c]pyridin-1-yl)cyclohexanecarbonitrile] | 0.31 | 0.48 |
| N#C[C@H]1CCCC[C@@H]1n1nc(Nc2ccc3c(c2)CN(C2CCOCC2)C3=O)c2c(=O)[nH]ccc21 [Example 15-59, (1S,2S)-2-(4-oxo-3-{[1-oxo-2-(tetrahydro-2H-pyran-4-yl)-2,3-dihydro-1H-isoindol-5-yl]amino}-4,5-dihydro-1H-pyrazolo[4,3-c]pyridin-1-yl)cyclohexanecarbonitrile] | 0.078 | 0.41 |
| N#C[C@H]1CCCC[C@@H]1n1nc(Nc2ccc(C(=O)N3CCCC3)cc2)c2c(=O)[nH]ccc21 [Example 3-44, (1S,2S)-2-(4-oxo-3-{[4-(pyrrolidin-1-ylcarbonyl)phenyl]amino}-4,5-dihydro-1H-pyrazolo[4,3-c]pyridin-1-yl)cyclohexanecarbonitrile] | 1.4 | 4.8 |
| N#C[C@H]1CCCC[C@@H]1n1nc(Nc2ccc([C@H]3C[C@H]4CC[C@@H](C3)N4)cc2)c2c(=O)[nH]ccc21 [Example 20-2] | 0.39 | 0.39 |
| CC(C)N1Cc2ccc(Nc3nn([C@H]4CCCC[C@@H]4C#N)c4cc[nH]c(=O)c34)cc2C1 [Example 3-74, (1S,2S)-2-(3-{[2-(1-methylethyl)-2,3-dihydro-1H-isoindol-5-yl]amino}-4-oxo-4,5-dihydro-1H-pyrazolo[4,3-c]pyridin-1-yl)cyclohexanecarbonitrile] | 0.14 | 0.29 |
| Cc1cc(Nc2nn([C@H]3CCCC[C@@H]3C#N)c3cc[nH]c(=O)c23)ccc1C(=O)N(C)C [Example 3-67, 4-({1-[(1S,2S)-2-cyanocyclohexyl]-4-oxo-4,5-dihydro-1H-pyrazolo[4,3-c]pyridin-3-yl}amino)-N,N,2-trimethylbenzamide] | 0.34 | 0.43 |
| Cn1cc(-c2ccc(Nc3nn([C@H]4CCCC[C@@H]4C#N)c4cc[nH]c(=O)c34)cc2Cl)cn1 [Example 3-146, (1S,2S)-2-(3-{[3-chloro-4-(1-methyl-1H-pyrazol-4-yl)phenyl]amino}-4-oxo-4,5-dihydro-1H-pyrazolo[4,3-c]pyridin-1-yl)cyclohexanecarbonitrile] | 0.29 | 6.4 |
| CN(C)[C@H]1CC[C@H](n2nc(Nc3ccc(Cl)cc3)c3c(=O)[nH]ccc32)[C@@H](C#N)C1 [Example 5-16, (1S,2S,5S)-2-(3-((4-chlorophenyl)amino)-4-oxo-4,5-dihydro-1H-pyrazolo[4,3-c]pyridin-1-yl)-5-(dimethylamino)cyclohexanecarbonitrile] | 0.34 | 11 |
| CC(C)(C)OC(=O)[C@H]1CC[C@@H](N2Cc3cc(Nc4nn([C@H]5CCCC[C@@H]5C#N)c5cc[nH]c(=O)c45)ccc3S2(=O)=O)CC1 [Example 15-43, (1S,4S)-tert-butyl 4-(5-((1-((1S,2S)-2-cyanocyclohexyl)-4-oxo-4,5-dihydro-1H-pyrazolo[4,3-c]pyridin-3-yl)amino)-1,1-dioxidobenzo[d]isothiazol-2(3H)-yl)cyclohexanecarboxylate] | 0.22 | 1.2 |
| CC(C)OC(=O)c1ccc2cc(Nc3nn([C@H]4CCCC[C@@H]4C#N)c4cc[nH]c(=O)c34)ccc2n1 [Example 15-16, isopropyl 6-((1-((1S,2S)-2-cyanocyclohexyl)-4-oxo-4,5-dihydro-1H-pyrazolo[4,3-c]pyridin-3-yl)amino)quinoline-2-carboxylate] | 0.26 | 3.8 |

Continued by falling IC50 (JAK1), values first:

| IC50 (JAK1) [nM] | IC50 (JAK2) [nM] | SMILES |
| --- | --- | --- |
| 0.91 | 0.89 | CC(C)N1Cc2cc(Nc3nn([C@H]4CCCC[C@@H]4C#N)c4cc[nH]c(=O)c34)ccc2C1C (single isomer, unassigned) [Example 19-1, (1S,2S)-2-(3-(((S or R)-2-isopropyl-1-methylisoindolin-5-yl)amino)-4-oxo-4,5-dihydro-1H-pyrazolo[4,3-c]pyridin-1-yl)cyclohexanecarbonitrile] |
| 0.4 | 5.4 | N#C[C@H]1CCCC[C@@H]1n1nc(Nc2ccnc(F)c2)c2c(=O)[nH]ccc21 [Example 3-2, (1S,2S)-2-{3-[(2-fluoropyridin-4-yl)amino]-4-oxo-4,5-dihydro-1H-pyrazolo[4,3-c]pyridin-1-yl}cyclohexanecarbonitrile] |
| 0.28 | 7.3 | N#C[C@H]1C[C@H](O)CC[C@@H]1n1nc(Nc2ccc(Cl)cc2)c2c(=O)[nH]ccc21 [Example 3-90, (1S,2S,5R)-2-(3-((4-chlorophenyl)amino)-4-oxo-4,5-dihydro-1H-pyrazolo[4,3-c]pyridin-1-yl)-5-hydroxycyclohexanecarbonitrile] |
| 0.28 | 0.55 | CC1(N2Cc3cc(Nc4nn([C@H]5CCCC[C@@H]5C#N)c5cc[nH]c(=O)c45)ccc3S2(=O)=O)CCC(F)(F)CC1 [Example 15-73, (1S,2S)-2-(3-{[2-(4,4-difluoro-1-methylcyclohexyl)-1,1-dioxido-2,3-dihydro-1,2-benzisothiazol-5-yl]amino}-4-oxo-4,5-dihydro-1H-pyrazolo[4,3-c]pyridin-1-yl)cyclohexanecarbonitrile] |
| 0.13 | 0.6 | N#C[C@H]1CCCC[C@@H]1n1nc(Nc2ccc(S(=O)(=O)NCC3CC3)cc2)c2c(=O)[nH]ccc21 [Example 3-20, 4-({1-[(1S,2S)-2-cyanocyclohexyl]-4-oxo-4,5-dihydro-1H-pyrazolo[4,3-c]pyridin-3-yl}amino)-N-(cyclopropylmethyl)benzene-sulfonamide] |
| 0.12 | 0.36 | CC(C)(C)S(=O)(=O)c1ccc(Nc2nn([C@H]3CCC[C@@H]3C#N)c3cc[nH]c(=O)c23)cc1 [Example 3-106, (1S,2S)-2-(3-{[4-(tert-butylsulfonyl)phenyl]amino}-4-oxo-4,5-dihydro-1H-pyrazolo[4,3-c]pyridin-1-yl)cyclopentanecarbonitrile] |
| 0.11 | 1.4 | CC1(C)C(=O)Nc2cc(Nc3nn([C@H]4CCCC[C@@H]4C#N)c4cc[nH]c(=O)c34)ccc21 [Example 15-7, (1S,2S)-2-{3-[(3,3-dimethyl-2-oxo-2,3-dihydro-1H-indol-6-yl)amino]-4-oxo-4,5-dihydro-1H-pyrazolo[4,3-c]pyridin-1-yl}cyclohexanecarbonitrile] |
| 0.092 | 1.6 | Cc1nc2ccc(Nc3nn([C@H]4CCCC[C@@H]4C#N)c4cc[nH]c(=O)c34)cc2s1 [Example 15-10, (1S,2S)-2-{3-[(2-methyl-1,3-benzothiazol-6-yl)amino]-4-oxo-4,5-dihydro-1H-pyrazolo[4,3-c]pyridin-1-yl}cyclohexanecarbonitrile] |
| 0.066 | 0.55 | CC(C)(C)OC(=O)CCN1Cc2cc(Nc3nn([C@H]4CCCC[C@@H]4C#N)c4cc[nH]c(=O)c34)ccc2S1(=O)=O [Example 3-150, tert-butyl 3-[5-({1-[(1S,2S)-2-cyanocyclohexyl]-4-oxo-4,5-dihydro-1H-pyrazolo[4,3-c]pyridin-3-yl}amino)-1,1-dioxido-1,2-benzisothiazol-2(3H)-yl]propanoate] |
| 0.059 | 0.44 | COCC(C)(C)CN1Cc2cc(Nc3nn([C@H]4CCCC[C@@H]4C#N)c4cc[nH]c(=O)c34)ccc2S1(=O)=O [Example 3-159, (1S,2S)-2-(3-((2-(3-methoxy-2,2-dimethylpropyl)-1,1-dioxido-2,3-dihydrobenzo[d]isothiazol-5-yl)amino)-4-oxo-4,5-dihydro-1H-pyrazolo[4,3-c]pyridin-1-yl)cyclohexanecarbonitrile] |
| 0.044 | 0.41 | CCN1Cc2cc(Nc3nn([C@H]4CCCC[C@@H]4C#N)c4cc[nH]c(=O)c34)ccc2S1(=O)=O [Example 3-60, (1S,2S)-2-{3-[(2-ethyl-1,1-dioxido-2,3-dihydro-1,2-benzisothiazol-5-yl)amino]-4-oxo-4,5-dihydro-1H-pyrazolo[4,3-c]pyridin-1-yl}cyclohexanecarbonitrile] |
| 0.041 | 0.52 | CC(C)(C)OC(=O)CN1Cc2cc(Nc3nn([C@H]4CCCC[C@@H]4C#N)c4cc[nH]c(=O)c34)ccc2S1(=O)=O [Example 3-151, tert-butyl [5-({1-[(1S,2S)-2-cyanocyclohexyl]-4-oxo-4,5-dihydro-1H-pyrazolo[4,3-c]pyridin-3-yl}amino)-1,1-dioxido-1,2-benzisothiazol-2(3H)-yl]acetate] |

Source: patent US9725445B2, “Cycloalkyl nitrile pyrazolo pyridones as Janus kinase inhibitors” (Merck Sharp & Dohme Corp., priority 2013, dated 2017)
